Paper PMC12226405 (Aging Medicine, 2025)

Assays:
lumbar spine (L2–L4) BMD = system: lumbar spine (L2–L4) BMD; parameters: method as in PMID 31243480; details: study of biosimilar approved in Japan; cited from earlier work
lumbar spine BMD = system: lumbar spine BMD; parameters: method as in PMID 11346808; details: Fracture Prevention Trial; after 2 years of 20 μg daily; cited from earlier work
femoral neck BMD = system: femoral neck BMD; parameters: method as in PMID 11346808; details: Fracture Prevention Trial; after 2 years of 20 μg daily; cited from earlier work
[1] = parameters: method as in PMID 31243480; details: Fracture Prevention Trial; 20 μg; cited from earlier work
[2] = system: lumbar spine BMD in postmenopausal women with osteoporosis; experiment: Percent change in lumbar spine BMD by DXA, phase III study; format: in vivo, human; details: for Percent change in lumbar spine BMD from baseline at Week 24, LSM ± SE / Percent change in lumbar spine BMD from baseline at Week 48, LSM ± SE: mITT population, LOCF, 20 μg s.c. once daily, DXA
Description: (§1) A multicenter, randomized, active‐controlled, double‐blind, parallel‐group phase III study was conducted between August 2018 and August 2020 at 17 sites in India. The study was conducted as per the principles and requirements of the Declaration of Helsinki (2013), and ICH‐GCP (E6‐R2, Step 4) guidelines along with the local regulatory requirements of Good Clinical Practices for Clinical Research in India (2004), ICMR guidelines for Biomedical Research on Human Subjects (2017) and New Drugs and Clinical Trial Rules, 2019 (CDSCO) and after approvals from respective Institutional Ethics Committees. The study was registered on the Clinical Trial Registry of India (CTRI/2018/05/014254).
(§2) After signing of the informed consent form, the subjects were screened to assess eligibility according to the study selection criteria. Postmenopausal women between the ages of 50–80 years with BMD T‐SCORE less than −2.5 at the lumbar spine or femoral neck were enrolled in the study.
(§3) All participants were provided with daily oral supplementation of 1000 mg of calcium and 500 IU of vitamin D3.
(§4) Medications known to affect bone metabolism, such as bisphosphonates, raloxifene, and denosumab, as well as drugs associated with reduced bone density, including glucocorticoids, aromatase inhibitors, and tamoxifen, were prohibited during the study. Throughout the treatment period, data were collected for primary and secondary endpoints. BMD was evaluated using dual‐energy X‐ray absorptiometry (DXA) as part of the efficacy assessments. Laboratory samples were collected during the treatment phase to support efficacy and safety evaluations, and all laboratory analyses were conducted at a central laboratory.
(§5) The primary endpoint of the study was the percent change in BMD of the lumbar spine and proximal femur, assessed using dual‐energy X‐ray absorptiometry (DXA) from baseline to Weeks 24 and 48. All DXA measurements were analyzed centrally, and the results were not disclosed to individual study centers to ensure unbiased interpretation. Secondary endpoints included the change from baseline in the pharmacodynamic parameter serum P1NP (procollagen type 1 N terminal propeptide), which was assessed at randomization and Weeks 12, 24, and 48. […] Serum biochemistry analyses were performed at baseline and at Weeks 4, 12, 24, and 48.
(§6) The efficacy analysis was performed on all the subjects in mITT (modified intention‐to‐treat) and PP (per protocol) population. Any missing postbaseline data were imputed using the last observation carried forward (LOCF) procedure. For the analysis of change from baseline to Week 12 (for P1NP), Week 24, and Week 48, a regression model with percent change from baseline as the response variable and the stratification variable was used for randomization, and treatment as independent variables was fit to test the mean difference between the two treatments in percent change. Adjusted least square mean (LSM) and the standard error values along with the p value and the 95% confidence interval (CI) of the difference were presented.

[3] = system: femoral neck BMD in postmenopausal women with osteoporosis; experiment: Percent change in femoral neck BMD by DXA, phase III study; format: in vivo, human; details: for percent change in femoral neck BMD from baseline to 48 weeks (LSM ± SE): as given in the abstract, population not given; for percent change in femoral neck BMD from baseline to 48 weeks (LSM ± SE) / Percent change in femoral neck BMD from baseline at Week 24, LSM ± SE / Percent change in femoral neck BMD from baseline at Week 48, LSM ± SE: 20 μg s.c. once daily; for Percent change in femoral neck BMD from baseline at Week 24, LSM ± SE / Percent change in femoral neck BMD from baseline at Week 48, LSM ± SE: mITT population, LOCF, DXA
Description: as §1, §2, §3, §4, §5, §6

[4] = system: serum P1NP (procollagen type 1 N terminal propeptide); experiment: Change from baseline in serum P1NP (bone turnover marker); format: in vivo, human; details: mITT population; 20 μg s.c. once daily
Description: as §3, §5, §6

[5] = Pharmacokinetic sub-study, plasma teriparatide on Day 1; format: in vivo, human; details: Day 1, 20 μg s.c., sampling to 240 min, noncompartmental, n = 15 per arm
Description: Pharmacokinetic (PK) assessments were performed on a subset of subjects who voluntarily consented to participate in an additional PK sub‐study alongside the main study. […] Blood samples for PK analysis were collected at the study site on Day 1 (Visit 2, i.e., the randomization visit) at specified time points: pre‐dose (within 30 min before the first investigational product [IP] administration) and at 5‐, 10‐, 20‐, 30‐, 45‐, 60‐, 90‐, 120‐, 180‐, and 240‐min post‐IP administration.
PK parameters (C max, AUC0–t , and T max) measured in plasma were calculated by noncompartmental methods, using Phoenix software for the PK population on Day 1. Descriptive statistics (number of subjects [n], mean, standard deviation, median, minimum, and maximum [range]) were calculated for all evaluable PK parameters by treatment group for the PK population.

[6] = biosimilar versus reference teriparatide, mITT
[7] = versus reference teriparatide, Week 24 and Week 48, mITT
[8] = listed as Proposed biosimilar teriparatide (T)
[9] = listed as Reference teriparatide (R)

Substance | percent change from baseline to 52 weeks in lumbar spine (L2–L4) BMD (mean ± SE) (lumbar spine (L2–L4) BMD) | Percent change in lumbar spine BMD from baseline at Week 24, LSM ± SE [2] [%] | Percent change in lumbar spine BMD from baseline at Week 48, LSM ± SE [2] [%] | percent change in femoral neck BMD from baseline to 48 weeks (LSM ± SE) [3] | Percent change in femoral neck BMD from baseline at Week 24, LSM ± SE [3] [%] | Percent change in femoral neck BMD from baseline at Week 48, LSM ± SE [3] | Serum P1NP concentration, change from baseline to Week 12 (LSM ± SE) [4] | Serum P1NP concentration, change from baseline to Week 24 (LSM ± SE) [4] | Serum P1NP concentration, change from baseline to Week 48 (LSM ± SE) [4] | other results
RGB‐10: proposed biosimilar teriparatide approved in Japan | 8.94% ± 6.19% |  |  |  |  |  |  |  |  | 
teriparatide |  |  |  |  |  |  |  |  |  | percentage increase in BMD at the lumbar spine (mean ± SE) (lumbar spine BMD): 9.7 ± 7.4%; percentage increase in BMD at the femoral neck (mean ± SE) (femoral neck BMD): 2.8 ± 5.7%; TEAE dizziness [1]: 9%; TEAE leg cramps [1]: 3%
teriparatide [Biosimilar teriparatide] |  | 7.16 ± 0.82 | 8.46 ± 0.94 | 3.94% ± 0.83 | 3.37 ± 0.78 | 4.03 ± 0.96 (p = 0.003) % | 24.38 ± 4.44 | 33.05 ± 7.00 | 48.52 ± 7.24 | estimated between-group difference (95% CI), lumbar spine BMD percent change to 48 weeks ([2]; abstract, biosimilar versus reference, noninferiority margin −2.43%): −0.56%; LSM difference (95% CI), lumbar spine BMD percent change at Week 24 [2, 6]: −0.410 (−3.191, 2.372); LSM difference (95% CI), lumbar spine BMD percent change at Week 48 [2, 6]: −0.754 (−4.011, 2.502); noninferiority in lumbar spine BMD percentage change [2, 7]: noninferiority; estimated between-group difference (95% CI), femoral neck BMD percent change to 48 weeks ([3]; abstract, biosimilar versus reference, noninferiority margin −1.44%): 1.44%; LSM difference (95% CI), femoral neck BMD percent change at Week 24 [3, 6]: 1.576 (−1.048, 4.199); LSM difference (95% CI), femoral neck BMD percent change at Week 48 [3, 6]: 0.173 (−3.146, 3.493); noninferiority in femoral neck BMD percentage change [3, 7]: noninferiority; AUC(0–t), geometric least squares mean [5, 8]: 6132.45 min; C max, geometric least squares mean [5, 8]: 0.10879 ng/mL
teriparatide [Reference teriparatide, reference compound] | 9.65% ± 6.22% | 7.57 ± 1.13 | 9.22 ± 1.34 | 2.50% ± 1.20 | 1.79 ± 1.07 | 3.86 ± 1.24 (p = 0.024) % | 21.95 ± 6.02 | 51.07 ± 9.63 | 34.30 ± 9.98 | AUC(0–t), geometric least squares mean [5, 9]: 6387.59 min; C max, geometric least squares mean [5, 9]: 0.10589 ng/mL
